Laboratory results as given in patent publication US9815794B2, “Inhibition of bacterial biofilms and microbial growth with imidazole derivatives” (North Carolina State University, priority 2011, dated 2017).
≈ marks a conversion by molar mass, not a printed value. Like-named read-outs stand apart in the source and are kept apart here.

Legend:
all of the test strains = test: Antibiotic activity (MIC) of control 2-aminoimidazoles against the test strains; assay type: cell-based
Description: To examine the necessity of the 4,5-disubstitution pattern for antimicrobial activity of the 2-aminoimidazole scaffold, two monosubstituted 2-aminoimidazole analogues of compound 19 were synthesized and screened alongside the parent 2-aminoimidazole for antibiotic activity (Scheme 2). Heptanoic acid and phenylhexanoic acid were treated with oxalyl chloride with catalytic dimethyl formamide in dichloromethane to produce the respective acid chlorides, which were then reacted with diazomethane and quenched with hydrobromic acid to make the respective alpha-bromo ketones. These alpha-bromo ketones were separately cyclized with boc-guanidine, providing a boc-protected 2-aminoimidazole scaffold that was subsequently deprotected upon treatment with trifluoroacetic acid in dichloromethane to yield 22 and 23.
(§1) Broth Microdilution Method for MIC Determination.

E. coli [1] = test: Biofilm formation inhibition, crystal violet reporter assay; assay type: cell-based; conditions: Escherichia coli, 100 μM
Description: (§2) The ability of each member of the pilot library to inhibit either E. coli or MDRAB biofilm formation at 100 μM was assessed using a crystal violet reporter assay (O'Toole et al., Mol. Microbiol., 1998, 30: 295-304).
This is typically indicative of biofilm inhibition via a traditional microbicidal mechanism instead of a mechanism that modulates biofilm formation through non-microbicidal mechanisms. […] At this concentration, a 97% reduction in bacterial growth was observed.

MDRAB [2] = test: as above; assay type: cell-based
Description: as §2

E. coli [3] = test: Broth microdilution MIC; assay type: cell-based; conditions: Escherichia coli
Description: (§3) Once it was determined that this specific 4,5-disubstitution pattern imparted microbicidal activity onto the 2-AI framework, this activity was quantified by measuring the MIC of each derivative against a variety of representative pathogenic bacterial strains using the microdilution protocol (CSLI, Performance Standards for Antimicrobial Suceptibility Testing; Nineteenth Informational Supplement, Clinical and Laboratory Standards Institute, Wayne, Pa., 2009). E. coli, MDRAB, P. aeruginosa, MRSA, MSSA, S. epidermidis and VRE were used for initial evaluation. From this screen, compound 15 was determined to be the lead compound and had MIC values (μg/mL) of 2, 2, 1, 0.5, 0.25, and 1 against E. coli, MDRAB, MRSA, VRE, S. Epidermidis and MSSA.
(§4) S. aureus (ATCC #29213), S. epidermidis (ATCC #29886), MRSA (ATCC # BAA-44), MDRAB (ATCC # BAA-1605), vancomycin resistant Enterococcus faecium (VRE) (ATCC #51559) and E. coli (ATCC #35695) were obtained from the ATCC. Mechanically difibrinated sheep blood (DSB100) was obtained from Hemostat Labs. Mueller-Hinton medium was purchased from Fluka (#70192).
as §1

MDRAB [4] = test: Broth microdilution MIC; assay type: cell-based
Description: as §3, §4, §1

S. epidermidis = test: Broth microdilution MIC; assay type: cell-based
Description: as §3, §4, §1

MRSA = test: Broth microdilution MIC; assay type: cell-based, methicillin-resistant S. aureus; conditions: Staphylococcus aureus
Description: as §3, §4, §1

MSSA = test: Broth microdilution MIC; assay type: cell-based, S. aureus; conditions: Staphylococcus aureus
Description: as §3, §4, §1

VRE = test: Broth microdilution MIC; assay type: cell-based, vancomycin resistant Enterococcus faecium; conditions: Enterococcus
Description: as §3, §4, §1

Vibrio cholerae = test: Marine bacteria microdilution MIC; assay type: cell-based; conditions: Vibrio cholerae, V. cholerae
Vibrio vulnificus = test: Marine bacteria microdilution MIC; conditions: Vibrio vulnificus, V. vulnificus
Listonella anguillarum = test: Marine bacteria microdilution MIC; conditions: Vibrio anguillarum, L. anguillarum
[5] = test system: Rhodospirillum salexigens; test: Marine bacteria microdilution MIC; conditions: Rhodothalassium salexigens, R. salexigens
[6] = Staphylococcus epidermidis, read-out: MIC

| SMILES | antibiotic activity (all of the test strains; highest concentration tested (36 μg/mL), every bacterial strain) | inhibition at 100 µM (E. coli [1]) [%] | inhibition at 100 µM (MDRAB [2]) [%] | MIC (E. coli [3]) [µg/mL] | MIC (MDRAB [4]) [µg/mL] | MIC (S. epidermidis; [6]) [µg/mL] | MIC (MRSA) [µg/mL] | MIC (MSSA) [µg/mL] | MIC (VRE) [µg/mL] | MIC (Vibrio cholerae) [µg/mL] | MIC (Vibrio vulnificus) [µg/mL] | MIC (Listonella anguillarum) [µg/mL] | MIC [5] [µg/mL] | MIC (S. epidermidis) [µg/mL] | antibiotic activity (all of the test strains; any of the test strains except for S. epidermidis) | MIC (all of the test strains; Staphylococcus epidermidis, all of the test strains except for S. epidermidis) [µg/mL] |
| --- | --- | --- | --- | --- | --- | --- | --- | --- | --- | --- | --- | --- | --- | --- | --- | --- |
| Nc1ncc[nH]1 [Compound 21, 2-aminoimidazole, reference compound] | no antibiotic activity |  |  |  |  |  |  |  |  |  |  |  |  |  |  |  |
| CCCc1[nH]c(N)nc1CCCCCc1ccccc1 [Compound 13, 4-(5-phenylpentyl)-5-propyl-1H-imidazol-2-amine] |  | 95.8 ± 1.5 | 87.8 ± 0.3 | 8 (≈ 29.5 µM) | 8 (≈ 29.5 µM) | 0.5 (≈ 1.84 µM) | 4 (≈ 14.7 µM) | 4 (≈ 14.7 µM) | 4 (≈ 14.7 µM) | 15.4 (≈ 56.7 µM) | 3.85 (≈ 14.2 µM) | 7.7 (≈ 28.4 µM) | 3.85 (≈ 14.2 µM) |  |  |  |
| Cl.Nc1nc(CCCCCc2ccccc2)c[nH]1 [Compound 23] |  |  |  |  |  |  |  |  |  |  |  |  |  | 0.05 | no notable antibiotic activity |  |
| Cc1[nH]c(N)nc1CCCCCc1ccccc1 [Compound 11, 5-methyl-4-(5-phenylpentyl)-1H-imidazol-2-amine] |  | 96.3 ± 0.08 | > 99 | 8 (≈ 32.9 µM) | 8 (≈ 32.9 µM) | 1 (≈ 4.11 µM) | 4 (≈ 16.4 µM) | 2 (≈ 8.22 µM) | 8 (≈ 32.9 µM) | 27.9 (≈ 115 µM) | 13.9 (≈ 57.1 µM) | 13.9 (≈ 57.1 µM) | 7 (≈ 28.8 µM) |  |  |  |
| CCCCc1[nH]c(N)nc1CCCCCc1ccccc1 [Compound 14, 5-butyl-4-(5-phenylpentyl)-1H-imidazol-2-amine] |  | 96.9 ± 1.1 | 85.4 ± 0.7 | 4 (≈ 14 µM) | 4 (≈ 14 µM) | 0.25 (≈ 0.876 µM) | 2 (≈ 7.01 µM) | 2 (≈ 7.01 µM) | 2 (≈ 7.01 µM) | 8.05 (≈ 28.2 µM) | 4.02 (≈ 14.1 µM) | 4.02 (≈ 14.1 µM) | 8.05 (≈ 28.2 µM) |  |  |  |
| CCc1[nH]c(N)nc1CCCCCc1ccccc1 [Compound 12, 5-ethyl-4-(5-phenylpentyl)-1H-imidazol-2-amine] |  | > 99 | 94.5 ± 0.2 | 16 (≈ 62.2 µM) | 32 (≈ 124 µM) | 2 (≈ 7.77 µM) | 8 (≈ 31.1 µM) | 4 (≈ 15.5 µM) | 8 (≈ 31.1 µM) | 29.4 (≈ 114 µM) | 29.4 (≈ 114 µM) | 14.7 (≈ 57.1 µM) | 14.7 (≈ 57.1 µM) |  |  |  |
| CCCCCCc1c[nH]c(N)n1.Cl [Compound 22, 4-hexyl-1H-imidazol-2-amine hydrochloride] |  |  |  |  |  | 0.04 |  |  |  |  |  |  |  |  |  | > 41 |
